Measured values from US20100022600A1, “METHODS AND COMPOSITIONS FOR TREATING CENTRAL NERVOUS SYSTEM TUMORS” (priority 2006, published 2010).

Assays:
[1] = test system: C6 glioma tumor cells; experiment: BrdU incorporation in vivo; parameters: species or system rat; conditions: 14 d
Procedure: At thirteen days of treatment animals were intraperitoneally injected with 300 mg/kg of 5-bromodeoxyuridine (BrdU; Sigma, St. Louis, Mo.), a thymidine analog that incorporates into the DNA of dividing cells during S phase and can be detected immunohistochemically. Twenty-four hours later, these animals were anesthetized and perfused with phosphate-buffered saline (PBS). Brains were dissected, frozen, cut and immunostained in the following manner: Sections were fixed in 4% paraformaldehyde, washed in PBS, and incubated in 2 N HCl for 10 min at room temperature. Sections were again washed in PBS and incubated in BrdU primary antibody (rat monoclonal 1:100, Abcam, Cambridge, UK) in PBS containing 5% normal goat serum overnight at 4 C. After washing with PBS, sections were incubated in rhodamine-labeled anti-rat secondary antibody (1:100, Jackson, West Grove, Pa., USA) in PBS containing 5% normal goat serum for 1 h at room temperature. The number of dividing cells present in the tumor of these BrdU-stained sections was counted and compared to total amount of tumor cells stained with DAPI.

[2] = Daily body weight in C6 rat glioma model; format: in vivo; conditions: daily weighing; vehicle group lost weight significantly at 17 d
Procedure: Before implantation, 85-90% confluent C6 cells were trypsinized, rinsed with DMEM+10% fetal calf serum, and centrifuged at 1000 rpm for 4 min. The cell pellet was resuspended in DMEM and placed on ice. Concentration of viable cells was adjusted to 1×10^5 cells/1 μl of DMEM. Each rat was anesthetized and placed in a stereotactic frame (David Kopf Instruments, Tujunga, Calif., USA), a hole was drilled at AP 0.0, R -3.0 relative to bregma according to the stereotaxic atlas of […], 1963). Tumor cells were injected at a rate of 0.5 μl/s, using a 2 μl Hamilton (#2701) syringe (Reno, Nev., USA) with a 26 s-gauge needle mounted on a stereotactic holder at a depth of 5 mm. […] For intracerebral administration of pio/vehicle (DMSO), the tip of an Alzet-brain-infusion-kit (Cupertino, Calif., USA) was placed in a depth of 5 mm, connected to a 2ML4 Alzet osmotic pump (Cupertino, Calif., USA). Drug administration began 4 h after surgery. […] The pumps were filled with 20 μM pio solved in PBS or vehicle (DMSO, 0.1% final concentration) solved in PBS. Animals were randomly distributed in two groups, treated with pio filled pumps (n=26) or vehicle filled pumps (n=26). Thereafter skull was cleaned and the incision sutured. […] Control animals received Purina chow without additions. Rats were allowed free access to the chow. Tumors were allowed to grow and animals were weighed daily. […]

[3] = test system: human glioma cells U87; experiment: MTT viability assay, human U87 glioma cells; format: cell-based; conditions: 30 μM pio; 3, 5 and 7 d
Procedure: Rat C6 glioma cells were grown in DMEM and human glioma cells (U87, A172) in RPMI, supplemented with 10% (v/v) fetal calf serum, 100 U/mL penicillin and 100 U/mL streptomycin in a 5% CO2 atmosphere. Primary astrocyte cultures were prepared as described previously (J Neurosci 1998; 18: 4451-60) and grown in DMEM, supplemented with 2.5% (v/v) fetal calf serum, 100 U/mL penicillin and 100 U/mL streptomycin in a 5% CO2 atmosphere. […] Experiments were performed in triplicate.

[4] = test system: CS-56; experiment: CS-56 expression in vivo (western blot, immunohistochemistry); parameters: species or system rat
Procedure: For western-blot analysis, tumor-containing hemispheres were homogenized in Tris-HCl [50 mM Tris-HCl pH8, 120 mM NaCl, 5 mM EDTA, 0.5% (v/v) NP-40, […] phenylmethylsulfonyl fluoride (PMSF)] and sonicated. Homogenates were collected by centrifugation (15 min 11000 g. 4° C.) and protein concentration in the supernatant was determined using the Bio-Rad Protein Assay (Biorad, Munich, Germany). Lysates (20-40 μg) were separated on a 7% (w/v) sodium dodecyl sulfate (SDS)-polyacrylamide gel under reducing conditions and transferred to a PVDF membrane (Millipore, Bedford, Mass., USA). Non-specific binding was blocked by incubation with 5% (w/v) skimmed milk in TBS for 2 h. Following incubation with the primary antibody overnight at 4° C. [rabbit anti-BAX 1:1000, rabbit anti-cleaved caspase-3 1:1000, mouse […] 1:1000, goat anti-MMP-9 1:1000 in TBS containing 0.1% (v/v) Tween 20] membranes were washed three times in TBS/Tween for 5 min and subsequently incubated for 120 min in TBS/Tween containing secondary peroxidase-conjugated antibody at room temperature (anti-rabbit 1:1000, anti-mouse 1:1000; anti-goat 1:1000 respectively). Signals were visualized by chemoluminescence (Pierce, Rockford, Ill., USA) and band intensities were quantified with NIH Image 1.62 software (Bethesda, Md., USA). Frozen brain sections were first blocked with 5% normal goat serum or normal horse serum in PBS and subsequently incubated with rabbit anti-Ki-67 antibody (1:200 dilution), mouse anti-CS-56 (1:100 dilution), goat anti-MMP-9 (1:100 dilution) or rabbit anti-cleaved caspase-3 antibody (1:200 dilution) at 4° C. overnight. Sections were washed extensively with PBS before incubation with secondary antibodies. Incubation was carried at room temperature for 1 h. After washing with PBS three times, stained slides were mounted with PBS/glycerol (1:1) and viewed under a fluorescent microscope (Leica, Germany).

[5] = test system: C6 glioma cell cultures; experiment: Ki-67 immunoreactivity and proliferation-index in vitro; format: cell-based, rat; conditions: 30 μM pio, 2 d and 5 d
Procedure: C6 glioma cell cultures were treated with pio or vehicle for 2 d and 5 d and fixed in 4% paraformaldehyde, rinsed in TBS and incubated with rabbit anti-Ki-67 (1:200 dilution) at 4° C. overnight and processed as described above. Counterstaining was carried out with propidium iodide (P1; 1:40; Sigma, St. Louis, Mo., USA) or DAPI-staining (1:500 in PBS). For determination of the proliferation-index, Ki-67 positive cells in pio and vehicle treated cells and animals were counted, the percentage of Ki-67 positive cells in 1×10^3 tumor cells (P1 staining used in the in vitro experiments—not shown; DAPI stain used in the in vivo experiments) calculated and statistically compared. The percentage of cleaved caspase-3 positive cells was assessed by counting the immunopositive cells in 1×10^3 tumor (DAPI stain) cells and statistically compared.

[6] = test system: C6 glioma tumor cells; experiment: TUNEL assay for apoptosis in tumors, C6 rat glioma model; format: in vivo; conditions: 9 days of pio treatment
Procedure: Frozen brain tissue sections were examined for apoptosis using the terminal deoxynucleotidyl transferase-mediated dUTP transferase nick-end labeling (TUNEL assay). Apoptosis was evaluated using the Promega DeadEnd Fluorometric Tunel System (Promega, Madison, Wis., USA) according to the manufacturer's instructions. The percentage of TUNEL positive cells was assessed by counting the immunopositve cells in 1×10^3 tumor (DAPI stain) cells and statistically compared.

For `CCc1ccc(CCOc2ccc(CC3SC(=O)NC3=O)cc2)nc1` (stereo not drawn) [pioglitazone, 5-[4-[2-(5-ethylpyridin-2-yl)ethoxyl]benzyl]thiazolidine-2,4-dione], the BrdU-incorporation [1] was “reduced”, the “percentage of BrdU positive cells” value [1] was “significantly lower” and the weight loss [2] was “did not show any weight loss”. The “cellular viability, effect in words” value [3] was “significantly reduced cellular viability”, the “CS-56 expression (western blot)” value ([4]; tissue lysates) was “upregulation of CS-56 expression” and the “increase in CS-56 protein levels (densitometry)” value ([4]; tissue lysates) was “around 56%”. The “CS-56 expression (immunohistochemistry)” value ([4]; tumor margin towards healthy brain tissue) was “upregulation of CS-56”, the “number of Ki-67 immunopositive cells compared to vehicle” value [5] was “reduced the number of Ki-67 immunopositive cells” and the TUNEL staining [6] was “Increased TUNEL staining”.
